Like-named read-outs stand apart in the source and are kept apart here.
Experiments:
Klebsiella pneumonia = assay: Antibiotic susceptibility of Klebsiella pneumonia strains; assay type: cell-based
From the text: (§1) All these MDR-bacteria are at least resistant to two classes of the antibiotics among five groups and/or specific antibiotics including quinolones/fluorquinolones, carbapenems, cephalosporins, aminoglycosides and piperacillin-tazobactam.

Citrobacter koseri = assay: Antibiotic susceptibility of Citrobacter koseri strain; assay type: cell-based; conditions: Ck1 (Citrobacter koseri)
From the text: as §1

[1] = tested on: Enterobacter cloacae complex; assay: Antibiotic susceptibility of Enterobacter cloacae complex strain; assay type: cell-based; conditions: Ecc1 (Enterobacter cloacae complex)
From the text: as §1

[2] = tested on: Staphylococcus epidermidis; assay type: cell-based
Method: (§2) It was also tested whether compounds #63 and #285 can inhibit other coagulase-negative Staphylococcus (CNS) including S. epidermidis, S. hominis, etc. […].

Staphylococcus hominis = assay type: cell-based
Method: as §2

[3] = tested on: S. aureus ATCC strains and MRSA; assay type: cell-based, Staphylococcus aureus
Morganella morganii = assay: Antibiotic susceptibility of Morganella morganii strain; assay type: cell-based; conditions: Mm1 (Morganella morganii)
From the text: as §1

[4] = tested on: Coagulase negative Staphylococcus; assay: Antibiotic susceptibility of coagulase negative Staphylococcus strains; assay type: cell-based
MDR E. coli = assay type: cell-based
From the text: as §1

[5] = tested on: MDR Acinetobacter baumannii; assay type: cell-based
From the text: as §1

[6] = CNS1 (Coagulase negative Staphylococcus)
[7] = CNS2 (Coagulase negative Staphylococcus)

## C[C@H]1COc2c(N3CCN(C)CC3)c(F)cc3c(=O)c(C(=O)O)cn1c23 [LVX, levofloxacin]
Klebsiella pneumonia; Kp1 (Klebsiella pneumonia)
  Antibiotic susceptibility: S
Klebsiella pneumonia; Kp6 (Klebsiella pneumonia)
  Antibiotic susceptibility: R
Citrobacter koseri
  Antibiotic susceptibility: I
[1]
  Antibiotic susceptibility: S
[2]; Se1 (Staphylococcus epidermidis)
  Antibiotic susceptibility: R
[2]; Se2 (Staphylococcus epidermidis)
  Antibiotic susceptibility: S
[2]; Se3 (Staphylococcus epidermidis)
  Antibiotic susceptibility: R
[2]; Se4 (Staphylococcus epidermidis)
  Antibiotic susceptibility: R
[2]; Se5 (Staphylococcus epidermidis)
  Antibiotic susceptibility: R
Staphylococcus hominis; Sh1 (Staphylococcus hominis)
  Antibiotic susceptibility: R
Staphylococcus hominis; Sh2 (Staphylococcus hominis)
  Antibiotic susceptibility: S
Staphylococcus hominis; Sh3 (Staphylococcus hominis)
  Antibiotic susceptibility: S
[3]; S. aureus ATCC 25923
  Antibiotic susceptibility: S
[3]; S. aureus ATCC 29213
  Antibiotic susceptibility: S
[3]; S. aureus ATCC BAA 976
  Antibiotic susceptibility: S
[3]; S. aureus ATCC BAA 977
  Antibiotic susceptibility: S
[3]; S. aureus ATCC BAA 1026
  Antibiotic susceptibility: R
[3]; Sa1 (MRSA)
  Antibiotic susceptibility: R
[3]; Sa2 (MRSA)
  Antibiotic susceptibility: R
[3]; Sa3 (MRSA)
  Antibiotic susceptibility: R
[3]; Sa6 (MRSA)
  Antibiotic susceptibility: R
[3]; Sa7 (MRSA)
  Antibiotic susceptibility: S
[3]; Sa9 (MRSA)
  Antibiotic susceptibility: R
[3]; Sa11 (MRSA)
  Antibiotic susceptibility: R
[3]; Sa12 (MRSA)
  Antibiotic susceptibility: R
[3]; Sa14 (MRSA)
  Antibiotic susceptibility: R
[3]; Sa15 (MRSA)
  Antibiotic susceptibility: R
[3]; Sa16 (MRSA)
  Antibiotic susceptibility: R
[3]; Sa17 (MRSA)
  Antibiotic susceptibility: R
[3]; Sa18 (MRSA)
  Antibiotic susceptibility: R
[3]; Sa19 (MRSA)
  Antibiotic susceptibility: S
[3]; Sa20 (MRSA)
  Antibiotic susceptibility: R
[3]; Sa21 (MRSA)
  Antibiotic susceptibility: S
[3]; Sa22 (MRSA)
  Antibiotic susceptibility: S
[3]; Sa23 (MRSA)
  Antibiotic susceptibility: S
Morganella morganii
  Antibiotic susceptibility: R
[4]; [6]
  Antibiotic susceptibility: S
[4]; [7]
  Antibiotic susceptibility: R
MDR E. coli; Ec1 (E. coli)
  Antibiotic susceptibility: S
MDR E. coli; Ec2 (E. coli)
  Antibiotic susceptibility: R
MDR E. coli; Ec3 (E. coli)
  Antibiotic susceptibility: S
MDR E. coli; Ec4 (E. coli)
  Antibiotic susceptibility: R
MDR E. coli; Ec5 (E. coli)
  Antibiotic susceptibility: R
[5]; Ab1 (Acinetobacter baumannii)
  Antibiotic susceptibility: R
[5]; Ab2 (Acinetobacter baumannii)
  Antibiotic susceptibility: I
[5]; Ab3 (Acinetobacter baumannii)
  Antibiotic susceptibility: R
[5]; Ab4 (Acinetobacter baumannii)
  Antibiotic susceptibility: R
[5]; Ab5 (Acinetobacter baumannii)
  Antibiotic susceptibility: R

## O=C1CN(/N=C/c2ccc([N+](=O)[O-])o2)C(=O)N1 [NIT, Nitrofurantoin]
Klebsiella pneumonia; Kp1 (Klebsiella pneumonia)
  Antibiotic susceptibility: S
Klebsiella pneumonia; Kp6 (Klebsiella pneumonia)
  Antibiotic susceptibility: R
Citrobacter koseri
  Antibiotic susceptibility: R
[1]
  Antibiotic susceptibility: S
[2]
  Antibiotic susceptibility: S
Staphylococcus hominis
  Antibiotic susceptibility: S
[3]; S. aureus ATCC 25923
  Antibiotic susceptibility: S
[3]; S. aureus ATCC 29213
  Antibiotic susceptibility: S
[3]; S. aureus ATCC BAA 976
  Antibiotic susceptibility: S
[3]; S. aureus ATCC BAA 977
  Antibiotic susceptibility: S
[3]; S. aureus ATCC BAA 1026
  Antibiotic susceptibility: S
[3]; Sa1 (MRSA)
  Antibiotic susceptibility: S
[3]; Sa2 (MRSA)
  Antibiotic susceptibility: S
[3]; Sa3 (MRSA)
  Antibiotic susceptibility: S
[3]; Sa6 (MRSA)
  Antibiotic susceptibility: S
[3]; Sa7 (MRSA)
  Antibiotic susceptibility: S
[3]; Sa9 (MRSA)
  Antibiotic susceptibility: S
[3]; Sa11 (MRSA)
  Antibiotic susceptibility: S
[3]; Sa12 (MRSA)
  Antibiotic susceptibility: S
[3]; Sa14 (MRSA)
  Antibiotic susceptibility: S
[3]; Sa15 (MRSA)
  Antibiotic susceptibility: S
[3]; Sa16 (MRSA)
  Antibiotic susceptibility: S
[3]; Sa17 (MRSA)
  Antibiotic susceptibility: S
[3]; Sa18 (MRSA)
  Antibiotic susceptibility: S
[3]; Sa19 (MRSA)
  Antibiotic susceptibility: S
[3]; Sa20 (MRSA)
  Antibiotic susceptibility: S
[3]; Sa21 (MRSA)
  Antibiotic susceptibility: S
[3]; Sa22 (MRSA)
  Antibiotic susceptibility: S
[3]; Sa23 (MRSA)
  Antibiotic susceptibility: S
Morganella morganii
  Antibiotic susceptibility: R
[4]; [6]
  Antibiotic susceptibility: S
[4]; [7]
  Antibiotic susceptibility: S
MDR E. coli; Ec1 (E. coli)
  Antibiotic susceptibility: S
MDR E. coli; Ec2 (E. coli)
  Antibiotic susceptibility: S
MDR E. coli; Ec3 (E. coli)
  Antibiotic susceptibility: S
MDR E. coli; Ec4 (E. coli)
  Antibiotic susceptibility: S
MDR E. coli; Ec5 (E. coli)
  Antibiotic susceptibility: S
[5]; Ab1 (Acinetobacter baumannii)
  Antibiotic susceptibility: R
[5]; Ab2 (Acinetobacter baumannii)
  Antibiotic susceptibility: R
[5]; Ab3 (Acinetobacter baumannii)
  Antibiotic susceptibility: R
[5]; Ab4 (Acinetobacter baumannii)
  Antibiotic susceptibility: R
[5]; Ab5 (Acinetobacter baumannii)
  Antibiotic susceptibility: R

## NC[C@H]1O[C@H](O[C@H]2[C@H](O)[C@@H](O[C@H]3O[C@H](CO)[C@@H](O)[C@H](N)[C@H]3O)[C@H](N)C[C@@H]2N)[C@H](N)C[C@@H]1O [TOB, Tobramycin]
Klebsiella pneumonia; Kp1 (Klebsiella pneumonia)
  Antibiotic susceptibility: S
Klebsiella pneumonia; Kp6 (Klebsiella pneumonia)
  Antibiotic susceptibility: R
Citrobacter koseri
  Antibiotic susceptibility: I
[1]
  Antibiotic susceptibility: S
Morganella morganii
  Antibiotic susceptibility: I
MDR E. coli; Ec1 (E. coli)
  Antibiotic susceptibility: I
MDR E. coli; Ec2 (E. coli)
  Antibiotic susceptibility: I
MDR E. coli; Ec3 (E. coli)
  Antibiotic susceptibility: I
MDR E. coli; Ec4 (E. coli)
  Antibiotic susceptibility: R
MDR E. coli; Ec5 (E. coli)
  Antibiotic susceptibility: R
[5]; Ab1 (Acinetobacter baumannii)
  Antibiotic susceptibility: S
[5]; Ab2 (Acinetobacter baumannii)
  Antibiotic susceptibility: S
[5]; Ab3 (Acinetobacter baumannii)
  Antibiotic susceptibility: S
[5]; Ab4 (Acinetobacter baumannii)
  Antibiotic susceptibility: S
[5]; Ab5 (Acinetobacter baumannii)
  Antibiotic susceptibility: I

Reference: patent publication US12502362B2, “Inhibitors of nucleotidyltransferase superfamily enzymes as antibiotics” (priority 2017, dated 2025)
